Results on 15 compounds are retold here after the NIST ThermoML archive (doi:10.1016/j.fluid.2013.02.008).

± gives the expanded uncertainty stated by the source.

The data set in a line: activity coefficient (dimensionless); of the first substance listed, at infinite dilution; xn = mol fraction of the nth substance listed. Particulars: Liquid, Chromatography, x1 = 0.

Turning to `CCCCCCCCCC` [decane] + CCCCCCCCCCCCO, the activity coefficient by setting is: (352.7 K, 101 kPa) 3.46 ± 0.24; (362.5 K, 101 kPa) 2.93 ± 0.2; (372.8 K, 101 kPa) 2.67 ± 0.18; (382.9 K, 101 kPa) 2.42 ± 0.16; (392 K, 101 kPa) 2.31 ± 0.16; (410.9 K, 101 kPa) 2.31 ± 0.16. Also, the activity coefficient (430.6 K, 101 kPa) was determined as 2.18 ± 0.15.
For the compound `CCCCCCCC` [octane] + CCCCCCCCCCCCO, the activity coefficient came to 2.29 ± 0.16 (353.3 K, 101 kPa); 2.21 ± 0.15 (362.6 K, 101 kPa); 2.16 ± 0.15 (372.4 K, 101 kPa); 2.08 ± 0.14 (383 K, 101 kPa); 1.9 ± 0.13 (411.1 K, 101 kPa); 1.76 ± 0.12 (430.6 K, 101 kPa).
For `CCCCCCCC` [octane] + OCCCO, the activity coefficient reads like this: (312.1 K, 101 kPa) 314 ± 22; (333.1 K, 101 kPa) 283 ± 19; (352.1 K, 101 kPa) 224 ± 15; (372.1 K, 101 kPa) 187 ± 13; (391.1 K, 101 kPa) 148 ± 10.
For the compound `CCCCCCCCCC` [decane] + CCCCCCCCCCCCCCO, the activity coefficient came out at 2.1 ± 0.14 (353 K, 101 kPa); 1.9 ± 0.13 (372.4 K, 101 kPa); 1.79 ± 0.12 (392 K, 101 kPa); 1.68 ± 0.11 (430.3 K, 101 kPa).
On to `CCCCCC` [hexane] + OCCCO, for which the activity coefficient reads like this: (312.1 K, 101 kPa) 77.2 ± 5.3; (333.1 K, 101 kPa) 72.9 ± 5; (352.1 K, 101 kPa) 52.4 ± 3.6.
As for `CCCCCCCC` [octane] + OCCO, the activity coefficient runs as follows: (332.1 K) 631 ± 43; (353.6 K) 447 ± 31; (372.7 K) 383 ± 26; (392.4 K) 313 ± 22.
For `CCCCCCCC` [octane] + CCCCCCCCCCO, the activity coefficient reads like this: (352.7 K, 101 kPa) 2.44 ± 0.17; (372.2 K, 101 kPa) 2.28 ± 0.16; (391.8 K, 101 kPa) 2.15 ± 0.15.
`CCCCCC` [hexane] + OCCO: the activity coefficient amounted to 97.8 ± 6.7 (313.2 K, 101 kPa); 88.1 ± 6 (332.1 K, 101 kPa); 80.6 ± 5.5 (353.5 K, 101 kPa).
For `CCCCCCCCCC` [decane] + CCCCCCCCCCO, the activity coefficient reads like this: (352.8 K, 101 kPa) 2.98 ± 0.2; (372.2 K, 101 kPa) 2.73 ± 0.19; (391.6 K, 101 kPa) 2.6 ± 0.18.
Turning to `CCCCCC` [hexane] + CCCCCCCCCCCCCCO, the activity coefficient is, setting by setting: (331.8 K, 101 kPa) 1.69 ± 0.11; (353 K, 101 kPa) 1.6 ± 0.11.
Turning to `CCCCCC` [hexane] + CCCCCCCCCCO, the activity coefficient is 2.21 ± 0.15 (312.6 K, 101 kPa); 2.14 ± 0.15 (331.7 K, 101 kPa); 2.02 ± 0.14 (352.9 K, 101 kPa).
As to `CCCCCCCCCC` [decane] + OCCO, the activity coefficient (359.5 K, 101 kPa) amounted to 1680 ± 120; the activity coefficient (373.1 K, 101 kPa) is 1210 ± 84; the activity coefficient (392.4 K, 101 kPa) was 804 ± 55; the activity coefficient (411.5 K, 101 kPa) was found to be 557 ± 38; the activity coefficient (431 K, 101 kPa) is 454 ± 31.
Turning to `CCCCCCCC` [octane] + CCCCCCCCCCCCCCO, the activity coefficient by setting is: (353 K, 101 kPa) 1.87 ± 0.08; (372.4 K, 101 kPa) 1.76 ± 0.07; (391.9 K, 101 kPa) 1.69 ± 0.07; (410.6 K, 101 kPa) 1.63 ± 0.07; (430.6 K, 101 kPa) 1.61 ± 0.06.
As to `CCCCCCCCCC` [decane] + OCCCO, the activity coefficient (312.1 K, 101 kPa) was found to be 793 ± 55; the activity coefficient (333.1 K, 101 kPa) was 589 ± 41; the activity coefficient (352.1 K, 101 kPa) was 501 ± 34; the activity coefficient (372.1 K, 101 kPa) is 464 ± 32; the activity coefficient (391.1 K, 101 kPa) came out at 338 ± 23; the activity coefficient (411.1 K, 101 kPa) was determined as 256 ± 18.
On to `CCCCCC` [hexane] + CCCCCCCCCCCCO, for which the activity coefficient reads like this: (312.7 K, 101 kPa) 2.03 ± 0.14; (332.1 K, 101 kPa) 1.98 ± 0.13; (353.2 K, 101 kPa) 1.86 ± 0.13.
